# Measurements from US8293764B2, “Compositions and methods for disruption of BRCA2-Rad51 interaction” (The Regents of the University of California, priority 2004, dated 2012).
# Peptide text beside a SMILES is read from it. * marks the point of attachment. Cbz = O=C(OCc1ccccc1)*
# Tested on: Rad51 in MCF-7 cells
# Test: Rad51 stability assay with cyclohexamide
# Assay type: cell-based
# Conditions: 1 μM MG132, IBR2 treated and control cells
# Excerpt: To examine the impact of IBR2 on Rad51 protein expression, IBR2 treated MCF-7 cells was examined by straight western blot probed with a panel of antibodies against BRCA2, Rad51, Rad50, p84 and Rb. […] Consistent with our FACS analysis (FIG. 4A), the hypo-phosphorylated form of Rb, a marker for G1 phase, was the major form observed in the later time points, further confirming that IBR2 arrests cells at G1 phase (FIG. 4A). It has been reported that BRCA2 level is cell cycle dependent, which expresses low in G1 phase and peaks at G1/S boundary. Therefore the decreased level of BRCA2 in IBR2 treated cells may be due to G1 phase arrest. Different from BRCA2 protein, Rad51 protein is expressed constant throughout the cell cycle in MCF-7 cells (data not shown). Therefore, loss of Rad51 protein may be the direct effect of IBR2 treatment instead of the consequence of G1 arrest. […]
# Western blot analysis: Cells were treated with […] or 50 μg/ml cycloheximide (CHX) or 1 μM MG132 and harvested at different time points for western blot analysis. […] The intensity of bands was quantified by densitometry using Labworks 4.5 software. The relative value of the band intensity was calculated with respect to that of untreated sample after normalization with the p84 signal.
structure (smiles),measurement,value
"CC(C)C[C@@H](C=O)NC(=O)[C@H](CC(C)C)NC(=O)[C@H](CC(C)C)NC(=O)OCc1ccccc1 [MG132, reference compound] (Cbz-Leu-Leu-Leu-aldehyde)",half-life of Rad51 with addition of MG132,prolonged
